Results published in the supplement of paper PMC10307832.

What was measured:
Experiment in all cases: relative viability (nuclei count vs DMSO), 5 days (fraction); higher = more cells survive
Vismodegib + Olaparib = compound: CS(=O)(=O)c1ccc(C(=O)Nc2ccc(Cl)c(-c3ccccn3)c2)c(Cl)c1 [Vismodegib] + O=C(c1cc(Cc2n[nH]c(=O)c3ccccc23)ccc1F)N1CCN(C(=O)C2CC2)CC1 [Olaparib] (partner 8 µM)
Summary of the method: (§1)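 Lung cancer cell lines in 1536-well plates were dosed by pin tool the day after seeding, either with one drug alone or with a fixed anchor-drug dose plus five library-drug doses (not always all listed) in √10 steps. After 5 days, cells were fixed and their nuclei stained in one step (final 0.05% Triton X-100, 1% formaldehyde, 1 ug/ml Hoechst), then counted on 4× images. Relative viability is the nuclei count in treated wells divided by that in vehicle wells. Values are medians of duplicate plates.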

Ruxolitinib + Decitabine = compound: N#CC[C@H](C1CCCC1)n1cc(-c2ncnc3[nH]ccc23)cn1 [Ruxolitinib] + Nc1ncn([C@H]2C[C@H](O)[C@@H](CO)O2)c(=O)n1 [Decitabine] (partner 2 µM)
Summary of the method: as §1

Ruxolitinib + Lapatinib = compound: N#CC[C@H](C1CCCC1)n1cc(-c2ncnc3[nH]ccc23)cn1 [Ruxolitinib] + CS(=O)(=O)CCNCc1ccc(-c2ccc3ncnc(Nc4ccc(OCc5cccc(F)c5)c(Cl)c4)c3c2)o1 [Lapatinib] (partner 2 µM)
Summary of the method: as §1

Vismodegib + Luminespib = compound: CS(=O)(=O)c1ccc(C(=O)Nc2ccc(Cl)c(-c3ccccn3)c2)c(Cl)c1 [Vismodegib] + CCNC(=O)c1noc(-c2cc(C(C)C)c(O)cc2O)c1-c1ccc(CN2CCOCC2)cc1 [Luminespib] (partner 0.01 µM)
Summary of the method: as §1

Row | Cell Line | relative viability (Vismodegib + Olaparib; first compound 0.08 µM) | relative viability (Vismodegib + Olaparib; first compound 0.253 µM) | relative viability (Vismodegib + Olaparib; first compound 0.8 µM) | relative viability (Vismodegib + Olaparib; first compound 2.53 µM) | relative viability (Vismodegib + Olaparib; first compound 8 µM) | relative viability (Ruxolitinib + Decitabine; first compound 0.08 µM) | relative viability (Ruxolitinib + Decitabine; first compound 0.253 µM) | relative viability (Ruxolitinib + Decitabine; first compound 0.8 µM) | relative viability (Ruxolitinib + Decitabine; first compound 2.53 µM) | relative viability (Ruxolitinib + Decitabine; first compound 8 µM) | relative viability (Ruxolitinib + Lapatinib; first compound 0.08 µM) | relative viability (Ruxolitinib + Lapatinib; first compound 0.253 µM) | relative viability (Ruxolitinib + Lapatinib; first compound 0.8 µM) | relative viability (Ruxolitinib + Lapatinib; first compound 2.53 µM) | relative viability (Ruxolitinib + Lapatinib; first compound 8 µM) | relative viability (Vismodegib + Luminespib; first compound 0.08 µM) | relative viability (Vismodegib + Luminespib; first compound 0.253 µM) | relative viability (Vismodegib + Luminespib; first compound 0.8 µM) | relative viability (Vismodegib + Luminespib; first compound 2.53 µM) | relative viability (Vismodegib + Luminespib; first compound 8 µM)
1 | NCI-H1666 | 0.679 | 0.747 | 0.727 | 0.732 | 0.749 | 0.601 | 0.666 | 0.753 | 0.678 | 0.721 | 0.584 | 0.629 | 0.738 | 0.844 | 0.656 | 0.985 | 0.986 | 1.15 | 0.999 | 1.06
2 | NCI-H1734 | 0.574 | 0.515 | 0.605 | 0.59 | 0.672 | 0.512 | 0.485 | 0.613 | 0.423 | 0.494 | 1.09 | 1 | 1.21 | 0.87 | 0.936 | 0.19 | 0.186 | 0.166 | 0.198 | 0.189
3 | NCI-H1755 | 0.863 | 0.884 | 0.897 | 0.843 | 0.852 | 0.742 | 0.686 | 0.755 | 0.694 | 0.667 | 1.05 | 1.02 | 1.04 | 0.977 | 0.722 | 0.403 | 0.327 | 0.39 | 0.366 | 0.461
4 | NCI-H1792 | 0.381 | 0.412 | 0.527 | 0.349 | 0.376 | 0.516 | 0.544 | 0.602 | 0.425 | 0.476 | 0.936 | 0.831 | 0.846 | 0.845 | 0.824 | 0.344 | 0.517 | 0.342 | 0.467 | 0.414
5 | NCI-H1793 |  | 0.907 | 1.11 | 0.917 | 0.884 | 0.436 | 0.502 | 0.488 | 0.392 | 0.413 | 0.647 | 0.665 | 0.905 | 0.896 | 0.493 |  | 0.214 | 0.189 | 0.482 | 0.19
6 | NCI-H1915 | 0.276 | 0.256 | 0.244 | 0.273 | 0.232 | 0.262 | 0.278 | 0.275 | 0.237 | 0.233 | 0.973 | 1 | 0.927 | 0.999 | 0.798 | 0.759 | 0.758 | 0.785 | 0.837 | 0.769
7 | NCI-H1944 | 0.414 | 0.404 | 0.398 |  | 0.441 | 0.445 | 0.394 | 0.467 | 0.393 | 0.409 | 0.823 | 0.903 | 0.798 | 0.729 | 0.815 | 0.729 | 0.716 | 0.782 | 0.758 | 0.83
8 | NCI-H1975 | 0.736 | 0.788 | 0.788 | 0.83 | 0.791 | 0.329 | 0.384 | 0.36 | 0.304 | 0.222 | 0.952 | 0.955 | 0.831 | 0.71 | 0.858 | 0.143 | 0.185 | 0.205 | 0.218 | 0.259
9 | NCI-H1993 | 0.9 | 1.03 | 1.03 | 1 | 0.963 | 0.582 | 0.53 | 0.595 | 0.534 | 0.59 | 0.821 | 0.696 | 0.977 | 0.863 | 0.78 | 0.799 | 0.865 | 0.747 | 0.814 | 0.796
10 | NCI-H2009 | 0.679 | 0.655 | 0.699 | 0.662 | 0.724 | 0.361 | 0.375 | 0.364 | 0.369 | 0.317 | 1.05 | 0.997 | 1.09 | 0.737 | 0.633 | 0.873 | 0.968 | 1.03 | 1.01 | 1.04
11 | NCI-H2023 | 0.496 | 0.448 | 0.519 | 0.44 | 0.541 | 0.214 | 0.264 | 0.267 | 0.218 | 0.271 | 0.921 | 0.693 | 1.75 | 0.807 | 0.728 | 0.634 | 0.789 | 0.891 | 0.68 | 0.794
12 | NCI-H2085 | 0.724 | 0.816 | 0.775 | 0.74 | 0.712 | 0.598 | 0.531 | 0.624 | 0.515 | 0.496 | 0.853 | 0.67 | 1 | 0.725 | 0.806 | 0.393 | 0.441 | 0.423 | 0.434 | 0.474
13 | NCI-H2087 | 0.582 | 0.594 | 0.607 | 0.594 | 0.508 | 0.316 |  | 0.35 | 0.189 | 0.286 | 1.05 | 1.1 | 1.16 | 0.786 | 1.04 | 0.171 | 0.192 | 0.172 | 0.203 | 0.209
14 | NCI-H2126 | 0.887 | 0.966 | 0.928 | 0.849 | 0.969 | 0.559 | 0.594 | 0.584 | 0.631 | 0.635 | 0.907 | 0.776 | 0.837 | 0.874 | 0.878 | 0.84 | 0.921 | 0.809 | 0.851 | 0.82
15 | NCI-H2170 | 0.624 | 0.549 | 0.657 | 0.581 | 0.584 | 0.499 | 0.436 | 0.496 | 0.425 | 0.427 | 0.303 | 0.253 | 0.302 | 0.276 | 0.301 | 0.677 | 0.513 | 0.762 | 0.645 | 0.7
16 | NCI-H2347 | 0.579 | 0.548 | 0.621 | 0.615 | 0.597 | 0.614 | 0.602 | 0.65 | 0.563 | 0.62 | 0.825 | 0.964 | 0.912 | 0.836 | 0.734 | 0.402 | 0.759 | 0.709 | 0.399 | 0.586
17 | NCI-H2405 | 0.856 | 0.909 | 0.823 | 0.833 | 0.875 | 0.765 | 0.786 | 0.792 | 0.682 | 0.424 |  | 1 | 1.23 | 0.879 | 0.643 | 0.735 | 0.691 | 0.706 | 0.686 | 0.686
